Data: patent EP0347027B1, “Phenylpyridone derivatives,processes for their preparation and pharmaceutical compositions containing them” (SMITH KLINE & FRENCH LABORATORIES LIMITED, priority 1988, dated 1989)

How the values were obtained:
hindquarter blood flow = test: Vasodilatation in vivo (perfused hindquarters at constant pressure); conditions: Rattus norvegicus, iv; dose producing a 50% increase in hindquarter blood flow; bolus i.v.; anaesthetised male Wistar rats; read-out: EDHQ₅₀
Method: Male Wistar rats (300 g) were anaesthetised with a sodium 5-ethyl-5-(1-methylpropyl)-2-thiobarbiturate/sodium pentobarbitone mixture i.p. (62.5 and 22.5 mg/kg respectively). The trachea was cannulated and the rats breathed spontaneously air enriched with O₂ (5 ml/min). Blood pressure was recorded from a carotid artery and a jugular vein was cannulated for the administration of compounds. The temperature of the animal was maintained at 37°C by the use of an electric blanket. […] The perfusion circuit was primed with 5% bovine serum albumin dissolved in 0.9% sodium chloride solution, pH adjusted to 7.4. Initially the pump rate was set between 10 and 15 ml/min to match the hind quarter perfusion pressure to that of the systemic circulation. Once set, the pressure remained unaltered for the rest of the experiment. A change in the speed of the pump (equivalent to hindquarter blood flow) was used to assess the changes in hindquarter vascular resistance.
All compounds were administered as a bolus i.v. and from the dose response curves the dose required to produce a 50% increase in hindquarter blood flow (EDHQ₅₀) was determined in µmoles/kg.

[1] = test system: bronchoconstrictor response; test: Anti-allergic activity (ovalbumen challenge in sensitised animals); format: in vivo, Duncan Hartley guinea-pigs; conditions: Cavia porcellus, iv, 0.5 h; dose of 11 µmol/kg i.v.; ovalbumen 1mg.kg⁻¹ i.v. challenge 30 minutes following drug administration; sensitised guinea-pigs; read-out: inhibition of the control bronchoconstrictor response
Method: Male Duncan Hartley guinea-pigs (250-300 g) were sensitised to ovalbumen by i.p. injection of 2 ml of 50mg.ml⁻¹ i.p. and 0.2 ml s.c. Three weeks later they were anaesthetised with 60mg.kg⁻¹ sodium pentabarbitone. The trachea was cannulated and the animal respired at a rate of 40 breaths per minute and at an initial tracheal inflation pressure of 16 mmHg. Tracheal inflation pressure was measured by a transducer connected to a side arm of the respiration circuit. The carotid artery was cannulated for the measurement of blood pressure and the signal was used to trigger an instantaneous rate meter. A jugular vein was cannulated for the administration of drug and allergen. After surgery the animals were allowed to stabilise and the drug was administered i.v. as a bolus. Following this, ovalbumen 1mg.kg⁻¹ was injected i.v. as the antigen challenge either 2, 15 or 30 minutes following drug treatment and the peak bronchoconstrictor response recorded. For the control group ovalbumen only was given. One ovalbumen challenge per guinea-pig was used and n = 6 for each time point. The percentage increase in tracheal inflation pressure was calculated.

In the case of `CCCOc1ccccc1-c1ccc(C#N)c(=O)[nH]1` [Example 1, 3-Cyano-6-(2-propoxyphenyl)-2(1H)-pyridinone], the ED50 (hindquarter blood flow) is reported as 11.5 µmol/kg.

Work on `CCCOc1ccccc1-c1ccc(C(N)=O)c(=O)[nH]1` [Example 2, 6-(2-Propoxyphenyl)-1,2-dihydro-2-oxopyridine-3-carboxamide] yielded an ED50 (hindquarter blood flow) of 14 µmol/kg and an inhibition at 11 µmol/kg [1] of 44%.
